Values after ≈ are worked out from the molar mass of the structure shown.
Legend:
Type in all cases: cell-based
S. aureus (CiproS) = test: In vitro MIC, agar dilution; details: Staphylococcus aureus
S. aureus (CiproR) = test: In vitro MIC, agar dilution; details: Staphylococcus aureus
S. epidermidis (CiproS) = test: In vitro MIC, agar dilution; details: Staphylococcus epidermidis
S. epidermidis (CiproR) = test: In vitro MIC, agar dilution; details: Staphylococcus epidermidis, S. epidermidis (CiproR), 11 isolates
S. pneumoniae (PenS) = test: In vitro MIC, agar dilution; details: Streptococcus pneumoniae
S. pneumoniae (PenR) = test: In vitro MIC, agar dilution; details: Streptococcus pneumoniae
S. pneumoniae (CiproR) = test: In vitro MIC, agar dilution; details: Streptococcus pneumoniae, read-out: MIC Range
S. pyogenes = test: In vitro MIC, agar dilution; details: Streptococcus pyogenes
E. faecium (CiproS) = test: In vitro MIC, agar dilution; details: Enterococcus faecium, E. faecium (CiproS), 16 isolates
E. faecium (CiproR) = test: In vitro MIC, agar dilution; details: Enterococcus faecium; E. faecium (CiproR), 2 isolates; read-out: MIC Range
E. faecalis (VanS) = test: In vitro MIC, agar dilution; details: Enterococcus faecalis
Enterococcus spp. (VanR) = test: In vitro MIC, agar dilution; details: Enterococcus spp. (VanR), 21 isolates
E. coli = test: In vitro MIC, agar dilution; details: Escherichia coli, 25 isolates
Method in brief: (§1)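 MIC, the lowest compound level without growth versus a drug-free BHI control plate, with faint haze or scattered colonies scored as no growth. About 10^4 CFU was replicator-spotted from 1:100 dilutions, or 1:10 for slow-growing strains, and plates were read after ~20–24 h at 35–37 °C.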

Salmonella spp. = test: In vitro MIC, agar dilution; details: 23 isolates
Method in brief: as §1

Shigella spp. = test: microbe, parasite or virus in culture; details: read-out: MIC Range
Klebsiella spp. = test: In vitro MIC, agar dilution
C. freundii = test: In vitro MIC, agar dilution; details: Citrobacter freundii
P. mirabilis = test: In vitro MIC, agar dilution; details: Proteus mirabilis
Providencia spp. = test: In vitro MIC, agar dilution; details: Providencia spp., 28 isolates
Enterobacter spp. = test: In vitro MIC, agar dilution
P. aeruginosa (CiproS) = test: In vitro MIC, agar dilution; details: Pseudomonas aeruginosa, P. aeruginosa (CiproS), 24 isolates
P. aeruginosa (CiproR) = test: In vitro MIC, agar dilution; details: Pseudomonas aeruginosa
B. fragilis = test: In vitro MIC, agar dilution; details: Bacteroides fragilis
C. difficile = test: In vitro MIC, agar dilution; details: Clostridioides difficile
C. perfringens = test: microbe, parasite or virus in culture; details: Clostridium perfringens
H. influenzae = test: In vitro MIC, agar dilution; details: Haemophilus influenzae
M. pneumoniae = test: In vitro MIC, agar dilution; details: Mycoplasmoides pneumoniae, read-out: MIC Range
N. gonorrhoeae = test: In vitro MIC, agar dilution; details: Neisseria gonorrhoeae
H. pylori = test: In vitro MIC, agar dilution; details: Helicobacter pylori
M. avium = test: In vitro MIC, agar dilution; details: Mycobacterium avium

With C[C@@H]1CN(c2c(F)c(N)c3c(=O)c(C(=O)O)cn(C4CC4)c3c2F)C[C@H](C)N1 [Sparfloxacin, sparfloxacin] the MIC50 (S. aureus (CiproS)) was 0.03 µg/mL (≈ 0.0765 µM), the MIC90 (S. aureus (CiproS)) was 0.06 µg/mL (≈ 0.153 µM) and the MIC (S. aureus (CiproS); S. aureus (CiproS), 21 isolates, read-out: MIC Range) was 0.03 to 0.06 µg/mL (≈ 0.0765 to 0.153 µM). The MIC (S. aureus (CiproR); read-out: MIC Range) was 0.12 to 16 µg/mL (≈ 0.306 to 40.8 µM), the MIC50 (S. aureus (CiproR); S. aureus (CiproR), 25 isolates, read-out: MIC50) was 4 µg/mL (≈ 10.2 µM) and the MIC90 (S. aureus (CiproR); S. aureus (CiproR), 25 isolates, read-out: MIC90) was 8 µg/mL (≈ 20.4 µM). The MIC90 (S. epidermidis (CiproS)) was 0.12 µg/mL (≈ 0.306 µM), the MIC50 (S. epidermidis (CiproS); S. epidermidis (CiproS), 23 isolates, read-out: MIC50) was 0.06 µg/mL (≈ 0.153 µM) and the MIC (S. epidermidis (CiproS); S. epidermidis (CiproS), 23 isolates, read-out: MIC Range) was 0.03 to 0.12 µg/mL (≈ 0.0765 to 0.306 µM). For the same molecule, the MIC50 (S. epidermidis (CiproR); read-out: MIC50) was 4 µg/mL (≈ 10.2 µM), the MIC90 (S. epidermidis (CiproR); read-out: MIC90) was 8 µg/mL (≈ 20.4 µM) and the MIC90 (S. pneumoniae (PenS)) was 0.5 µg/mL (≈ 1.27 µM). For the same molecule, the MIC (S. pneumoniae (PenS); read-out: MIC Range) was 0.12 to 0.5 µg/mL (≈ 0.306 to 1.27 µM), the MIC50 (S. pneumoniae (PenS); S. pneumoniae (PenS), 20 isolates, read-out: MIC50) was 0.25 µg/mL (≈ 0.637 µM) and the MIC90 (S. pneumoniae (PenR)) was 0.25 µg/mL (≈ 0.637 µM). The MIC (S. pneumoniae (PenR); read-out: MIC Range) was 0.12 to 0.25 µg/mL (≈ 0.306 to 0.637 µM), the MIC50 (S. pneumoniae (PenR); S. pneumoniae (PenR), 25 isolates, read-out: MIC50) was 0.25 µg/mL (≈ 0.637 µM) and the MIC (S. pneumoniae (CiproR)) was 0.25 to 0.5 µg/mL (≈ 0.637 to 1.27 µM). The MIC90 (S. pyogenes) was 0.5 µg/mL (≈ 1.27 µM), the MIC (S. pyogenes; read-out: MIC Range) was 0.12 to 1 µg/mL (≈ 0.306 to 2.55 µM) and the MIC50 (S. pyogenes; S. pyogenes, 21 isolates, read-out: MIC50) was 0.25 µg/mL (≈ 0.637 µM). It also gave an MIC50 (E. faecium (CiproS); read-out: MIC50) of 0.5 µg/mL (≈ 1.27 µM), an MIC90 (E. faecium (CiproS); read-out: MIC90) of 1 µg/mL (≈ 2.55 µM) and an MIC (E. faecium (CiproS); read-out: MIC Range) of 0.5 to 32 µg/mL (≈ 1.27 to 81.5 µM). It also gave an MIC (E. faecium (CiproR)) of 8 to 32 µg/mL (≈ 20.4 to 81.5 µM), an MIC90 (E. faecalis (VanS)) of 0.5 µg/mL (≈ 1.27 µM) and an MIC (E. faecalis (VanS); read-out: MIC Range) of 0.25 to 1 µg/mL (≈ 0.637 to 2.55 µM). It also gave an MIC50 (E. faecalis (VanS); E. faecalis (VanS), 17 isolates, read-out: MIC50) of 0.5 µg/mL (≈ 1.27 µM), an MIC50 (Enterococcus spp. (VanR); read-out: MIC50) of 0.5 µg/mL (≈ 1.27 µM) and an MIC90 (Enterococcus spp. (VanR); read-out: MIC90) of 8 µg/mL (≈ 20.4 µM). For the same molecule, the MIC (Enterococcus spp. (VanR); read-out: MIC Range) was 0.25 to 32 µg/mL (≈ 0.637 to 81.5 µM), the MIC (E. coli) was 0.004 to 0.03 µg/mL (≈ 0.0102 to 0.0765 µM) and the MIC50 (E. coli; read-out: MIC50) was 0.015 µg/mL (≈ 0.0382 µM). It also gave an MIC90 (E. coli; read-out: MIC90) of 0.03 µg/mL (≈ 0.0765 µM), an MIC (Salmonella spp.) of 0.004 to 0.5 µg/mL (≈ 0.0102 to 1.27 µM) and an MIC50 (Salmonella spp.; read-out: MIC50) of 0.03 µg/mL (≈ 0.0765 µM). The MIC90 (Salmonella spp.; read-out: MIC90) was 0.06 µg/mL (≈ 0.153 µM), the MIC (Shigella spp.) was 0.004 to 0.015 µg/mL (≈ 0.0102 to 0.0382 µM) and the MIC90 (Klebsiella spp.; Klebsiella) was 0.06 µg/mL (≈ 0.153 µM). For the same molecule, the MIC50 (Klebsiella spp.; Klebsiella spp., 29 isolates, read-out: MIC50) was 0.06 µg/mL (≈ 0.153 µM), the MIC (Klebsiella spp.; Klebsiella spp., 29 isolates, read-out: MIC Range) was 0.004 to 0.5 µg/mL (≈ 0.0102 to 1.27 µM) and the MIC50 (C. freundii) was 0.03 µg/mL (≈ 0.0765 µM). The MIC90 (C. freundii) was 0.5 µg/mL (≈ 1.27 µM), the MIC (C. freundii; C. freundii, 20 isolates, read-out: MIC Range) was 0.015 to 1 µg/mL (≈ 0.0382 to 2.55 µM) and the MIC90 (P. mirabilis) was 0.25 µg/mL (≈ 0.637 µM). It also gave an MIC (P. mirabilis; read-out: MIC Range) of 0.12 to 0.5 µg/mL (≈ 0.306 to 1.27 µM), an MIC50 (P. mirabilis; P. mirabilis, 20 isolates, read-out: MIC50) of 0.25 µg/mL (≈ 0.637 µM) and an MIC50 (Providencia spp.; read-out: MIC50) of 0.12 µg/mL (≈ 0.306 µM). For the same molecule, the MIC90 (Providencia spp.; read-out: MIC90) was 1 µg/mL (≈ 2.55 µM), the MIC (Providencia spp.; read-out: MIC Range) was 0.015 to 2 µg/mL (≈ 0.0382 to 5.1 µM) and the MIC90 (Enterobacter spp.; Enterobacter) was 0.06 µg/mL (≈ 0.153 µM). The MIC50 (Enterobacter spp.; Enterobacter spp., 35 isolates, read-out: MIC50) was 0.06 µg/mL (≈ 0.153 µM), the MIC (Enterobacter spp.; Enterobacter spp., 35 isolates, read-out: MIC Range) was 0.008 to 0.25 µg/mL (≈ 0.0204 to 0.637 µM) and the MIC50 (P. aeruginosa (CiproS); read-out: MIC50) was 0.5 µg/mL (≈ 1.27 µM). It also gave an MIC90 (P. aeruginosa (CiproS); read-out: MIC90) of 1 µg/mL (≈ 2.55 µM), an MIC (P. aeruginosa (CiproS); read-out: MIC Range) of 0.06 to 8 µg/mL (≈ 0.153 to 20.4 µM) and an MIC90 (P. aeruginosa (CiproR)) of 128 µg/mL (≈ 326 µM). It also gave an MIC50 (P. aeruginosa (CiproR); P. aeruginosa (CiproR), 20 isolates, read-out: MIC50) of 64 µg/mL (≈ 163 µM), an MIC (B. fragilis; read-out: MIC Range) of 0.5 to 2 µg/mL (≈ 1.27 to 5.1 µM) and an MIC50 (B. fragilis; B. fragilis, 18 isolates, read-out: MIC50) of 1 µg/mL (≈ 2.55 µM). For the same molecule, the MIC90 (B. fragilis; B. fragilis, 18 isolates, read-out: MIC90) was 2 µg/mL (≈ 5.1 µM), the MIC (C. difficile; read-out: MIC Range) was 2 to 4 µg/mL (≈ 5.1 to 10.2 µM) and the MIC50 (C. difficile; C. difficile, 10 isolates, read-out: MIC50) was 4 µg/mL (≈ 10.2 µM). The MIC90 (C. difficile; C. difficile, 10 isolates, read-out: MIC90) was 4 µg/mL (≈ 10.2 µM), the MIC50 (C. perfringens) was 0.25 µg/mL (≈ 0.637 µM) and the MIC90 (C. perfringens; C. perfringens, 13 isolates) was 0.5 µg/mL (≈ 1.27 µM). The MIC (C. perfringens; read-out: MIC Range) was 0.06 to 0.5 µg/mL (≈ 0.153 to 1.27 µM), the MIC90 (H. influenzae) was 0.015 µg/mL (≈ 0.0382 µM) and the MIC50 (H. influenzae; H. influenzae, 18 isolates, read-out: MIC50) was 0.008 µg/mL (≈ 0.0204 µM). For the same molecule, the MIC (H. influenzae; H. influenzae, 18 isolates, read-out: MIC Range) was 0.004 to 0.03 µg/mL (≈ 0.0102 to 0.0765 µM), the MIC (M. pneumoniae) was 0.06 to 0.12 µg/mL (≈ 0.153 to 0.306 µM) and the MIC90 (N. gonorrhoeae) was 0.015 µg/mL (≈ 0.0382 µM). The MIC50 (N. gonorrhoeae; N. gonorrhoeae, 12 isolates, read-out: MIC50) was 0.004 µg/mL (≈ 0.0102 µM), the MIC (N. gonorrhoeae; N. gonorrhoeae, 12 isolates, read-out: MIC Range) was 0.002 to 0.06 µg/mL (≈ 0.0051 to 0.153 µM) and the MIC90 (H. pylori) was 0.25 µg/mL (≈ 0.637 µM). For the same molecule, the MIC (H. pylori; read-out: MIC Range) was 0.06 to 0.25 µg/mL (≈ 0.153 to 0.637 µM), the MIC50 (H. pylori; H. pylori, 17 isolates, read-out: MIC50) was 0.12 µg/mL (≈ 0.306 µM) and the MIC (M. avium; read-out: MIC Range) was 0.5 to 16 µg/mL (≈ 1.27 to 40.8 µM). For the same molecule, the MIC50 (M. avium; M. avium, 20 isolates, read-out: MIC50) was 2 µg/mL (≈ 5.1 µM) and the MIC90 (M. avium; M. avium, 20 isolates, read-out: MIC90) was 2 µg/mL (≈ 5.1 µM).
